Laboratory results: patent US8933230B2, “Phosphorus-containing group-substituted quinoline, its preparation process, medical composition containing the compounds and application” (priority 2011, dated 2015)

Assays:
Test in all cases: KinomeScan kinase panel
Type in all cases: binding
[1] = target: T1, ABL1(Q252H)-nonphosphorylated (Homo sapiens, UniProt P00519, Q252H)
T1 construct: purchased DiscoveRx Corporation (KinomeScan)
Outline: (§1)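 The compound was profiled across a 442-kinase KinomeScan binding panel at a fixed concentration of 1000 nM; values reflect inhibitory effect at that one dose.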

[2] = target: T2, ABL1(Q252H)-phosphorylated (Homo sapiens, UniProt P00519, Q252H)
T2 construct: purchased DiscoveRx Corporation (KinomeScan)
Outline: as §1

ACVRL1 = target: T3, ACVRL1 (Homo sapiens, UniProt P37023)
T3 construct: purchased DiscoveRx Corporation (KinomeScan)
Outline: as §1

ASK2 = target: T4, ASK2 (Homo sapiens, UniProt O95382)
T4 construct: purchased DiscoveRx Corporation (KinomeScan)
Outline: as §1

CDK9 = target: T5, CDK9 (Homo sapiens, UniProt P50750)
T5 construct: purchased DiscoveRx Corporation (KinomeScan)
Outline: as §1

CDKL5 = target: T6, CDKL5 (Homo sapiens, UniProt O76039)
T6 construct: purchased DiscoveRx Corporation (KinomeScan)
Outline: as §1

CSNK1A1L = target: T7, CSNK1A1L (Homo sapiens, UniProt Q8N752)
T7 construct: purchased DiscoveRx Corporation (KinomeScan)
Outline: as §1

DLK = target: T8, DLK (Homo sapiens, UniProt Q12852)
T8 construct: purchased DiscoveRx Corporation (KinomeScan)
Outline: as §1

DRAK1 = target: T9, DRAK1 (Homo sapiens, UniProt Q9UEE5)
T9 construct: purchased DiscoveRx Corporation (KinomeScan)
Outline: as §1

DYRK1B = target: T10, DYRK1B (Homo sapiens, UniProt Q9Y463)
T10 construct: purchased DiscoveRx Corporation (KinomeScan)
Outline: as §1

EPHB1 = target: T11, EPHB1 (Homo sapiens, UniProt P54762)
T11 construct: purchased DiscoveRx Corporation (KinomeScan)
Outline: as §1

EPHB4 = target: T12, EPHB4 (Homo sapiens, UniProt P54760)
T12 construct: purchased DiscoveRx Corporation (KinomeScan)
Outline: as §1

EPHB6 = target: T13, EPHB6 (Homo sapiens, UniProt O15197)
T13 construct: purchased DiscoveRx Corporation (KinomeScan)
Outline: as §1

FAK = target: T14, FAK (Homo sapiens, UniProt Q05397)
T14 construct: purchased DiscoveRx Corporation (KinomeScan)
Outline: as §1

FGFR4 = target: T15, FGFR4 (Homo sapiens, UniProt P22455)
T15 construct: purchased DiscoveRx Corporation (KinomeScan)
Outline: as §1

FLT3(K663Q) = target: T16, FLT3(K663Q) (Homo sapiens, UniProt P36888, K663Q)
T16 construct: purchased DiscoveRx Corporation (KinomeScan)
Outline: as §1

[3] = target: T17, JAK1(JH1domain-catalytic) (Homo sapiens, UniProt P23458)
T17 construct: JAK1(JH1domain-catalytic); purchased DiscoveRx Corporation (KinomeScan)
Outline: as §1

[4] = target: T18, JAK1(JH2domain-pseudokinase) (Homo sapiens, UniProt P23458)
T18 construct: JAK1(JH2domain-; purchased DiscoveRx Corporation (KinomeScan)
Outline: as §1

LIMK1 = target: T19, LIMK1 (Homo sapiens, UniProt P53667)
T19 construct: purchased DiscoveRx Corporation (KinomeScan)
Outline: as §1

LRRK2(G2019S) = target: T20, LRRK2(G2019S) (Homo sapiens, UniProt Q5S007, G2019S)
T20 construct: purchased DiscoveRx Corporation (KinomeScan)
Outline: as §1

MEK4 = target: T21, MEK4 (Homo sapiens, UniProt P45985)
T21 construct: purchased DiscoveRx Corporation (KinomeScan)
Outline: as §1

MKK7 = target: T22, MKK7 (Homo sapiens, UniProt O14733)
T22 construct: purchased DiscoveRx Corporation (KinomeScan)
Outline: as §1

MLK3 = target: T23, MLK3 (Homo sapiens, UniProt Q16584)
T23 construct: purchased DiscoveRx Corporation (KinomeScan)
Outline: as §1

MST1 = target: T24, MST1 (Homo sapiens, UniProt Q13043)
T24 construct: purchased DiscoveRx Corporation (KinomeScan)
Outline: as §1

NEK5 = target: T25, NEK5 (Homo sapiens, UniProt Q6P3R8)
T25 construct: purchased DiscoveRx Corporation (KinomeScan panel)
Outline: as §1

PAK6 = target: T26, PAK6 (Homo sapiens, UniProt Q9NQU5)
T26 construct: purchased DiscoveRx Corporation (KinomeScan panel)
Outline: as §1

PIK4CB = target: T27, PIK4CB (Homo sapiens, UniProt Q9UBF8)
T27 construct: purchased DiscoveRx Corporation (KinomeScan)
Outline: as §1

PIP5K2B = target: T28, PIP5K2B (Homo sapiens, UniProt P78356)
T28 construct: purchased DiscoveRx Corporation (KinomeScan)
Outline: as §1

PIP5K2C = target: T29, PIP5K2C (Homo sapiens, UniProt Q8TBX8)
T29 construct: purchased DiscoveRx Corporation (KinomeScan)
Outline: as §1

PRKCD = target: T30, PRKCD (Homo sapiens, UniProt Q05655)
T30 construct: purchased DiscoveRx Corporation (KinomeScan)
Outline: as §1

ROCK2 = target: T31, ROCK2 (Homo sapiens, UniProt O75116)
T31 construct: purchased DiscoveRx Corporation
Outline: as §1

[5] = target: T32, RSK3(Kin.Dom.2-C-terminal) (Homo sapiens, UniProt Q15349)
T32 construct: Kin.Dom.2; purchased DiscoveRx Corporation (KinomeScan)
Outline: as §1

TAOK3 = target: T33, TAOK3 (Homo sapiens, UniProt Q9H2K8)
T33 construct: purchased DiscoveRx Corporation (KinomeScan)
Outline: as §1

[6] = target: T34, TYK2(JH1domain-catalytic) (Homo sapiens, UniProt P29597)
T34 construct: JH1domain; purchased DiscoveRx Corporation (KinomeScan)
Outline: as §1

T31 sequence (O75116 whole entry): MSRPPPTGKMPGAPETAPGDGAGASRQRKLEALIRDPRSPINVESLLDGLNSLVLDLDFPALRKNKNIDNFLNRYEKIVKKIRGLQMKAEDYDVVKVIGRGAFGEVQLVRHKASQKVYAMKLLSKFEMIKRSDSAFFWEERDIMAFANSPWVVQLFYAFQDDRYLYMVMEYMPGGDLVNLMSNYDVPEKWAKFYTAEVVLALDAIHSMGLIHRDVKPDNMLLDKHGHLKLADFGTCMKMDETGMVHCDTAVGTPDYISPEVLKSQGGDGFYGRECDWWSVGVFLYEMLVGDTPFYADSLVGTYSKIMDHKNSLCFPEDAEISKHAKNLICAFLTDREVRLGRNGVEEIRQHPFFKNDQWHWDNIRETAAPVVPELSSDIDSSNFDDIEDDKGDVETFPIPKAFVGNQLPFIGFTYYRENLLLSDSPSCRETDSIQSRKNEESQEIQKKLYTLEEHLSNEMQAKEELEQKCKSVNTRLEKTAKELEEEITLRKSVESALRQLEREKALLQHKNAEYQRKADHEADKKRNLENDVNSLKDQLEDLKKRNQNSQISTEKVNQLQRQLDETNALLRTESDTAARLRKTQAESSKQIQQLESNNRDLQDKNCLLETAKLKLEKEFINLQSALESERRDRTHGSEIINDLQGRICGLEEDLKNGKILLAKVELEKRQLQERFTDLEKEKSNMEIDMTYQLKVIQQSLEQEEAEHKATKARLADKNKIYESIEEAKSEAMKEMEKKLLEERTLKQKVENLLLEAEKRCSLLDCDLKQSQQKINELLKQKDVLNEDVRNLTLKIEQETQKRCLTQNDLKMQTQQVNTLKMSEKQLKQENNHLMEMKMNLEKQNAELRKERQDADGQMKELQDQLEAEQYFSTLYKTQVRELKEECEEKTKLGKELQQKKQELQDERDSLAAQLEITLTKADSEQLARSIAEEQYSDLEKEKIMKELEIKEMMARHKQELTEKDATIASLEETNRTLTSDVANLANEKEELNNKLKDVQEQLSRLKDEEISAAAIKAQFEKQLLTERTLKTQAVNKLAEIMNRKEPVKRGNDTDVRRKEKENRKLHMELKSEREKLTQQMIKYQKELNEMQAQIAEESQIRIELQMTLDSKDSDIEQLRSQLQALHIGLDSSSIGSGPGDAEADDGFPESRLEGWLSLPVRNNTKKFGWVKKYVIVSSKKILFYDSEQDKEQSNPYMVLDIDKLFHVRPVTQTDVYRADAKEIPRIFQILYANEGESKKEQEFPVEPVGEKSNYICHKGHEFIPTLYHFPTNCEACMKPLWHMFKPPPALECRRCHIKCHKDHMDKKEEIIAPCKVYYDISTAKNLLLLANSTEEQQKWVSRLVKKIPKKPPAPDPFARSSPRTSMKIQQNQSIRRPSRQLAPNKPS
T13 sequence (O15197 32-1021): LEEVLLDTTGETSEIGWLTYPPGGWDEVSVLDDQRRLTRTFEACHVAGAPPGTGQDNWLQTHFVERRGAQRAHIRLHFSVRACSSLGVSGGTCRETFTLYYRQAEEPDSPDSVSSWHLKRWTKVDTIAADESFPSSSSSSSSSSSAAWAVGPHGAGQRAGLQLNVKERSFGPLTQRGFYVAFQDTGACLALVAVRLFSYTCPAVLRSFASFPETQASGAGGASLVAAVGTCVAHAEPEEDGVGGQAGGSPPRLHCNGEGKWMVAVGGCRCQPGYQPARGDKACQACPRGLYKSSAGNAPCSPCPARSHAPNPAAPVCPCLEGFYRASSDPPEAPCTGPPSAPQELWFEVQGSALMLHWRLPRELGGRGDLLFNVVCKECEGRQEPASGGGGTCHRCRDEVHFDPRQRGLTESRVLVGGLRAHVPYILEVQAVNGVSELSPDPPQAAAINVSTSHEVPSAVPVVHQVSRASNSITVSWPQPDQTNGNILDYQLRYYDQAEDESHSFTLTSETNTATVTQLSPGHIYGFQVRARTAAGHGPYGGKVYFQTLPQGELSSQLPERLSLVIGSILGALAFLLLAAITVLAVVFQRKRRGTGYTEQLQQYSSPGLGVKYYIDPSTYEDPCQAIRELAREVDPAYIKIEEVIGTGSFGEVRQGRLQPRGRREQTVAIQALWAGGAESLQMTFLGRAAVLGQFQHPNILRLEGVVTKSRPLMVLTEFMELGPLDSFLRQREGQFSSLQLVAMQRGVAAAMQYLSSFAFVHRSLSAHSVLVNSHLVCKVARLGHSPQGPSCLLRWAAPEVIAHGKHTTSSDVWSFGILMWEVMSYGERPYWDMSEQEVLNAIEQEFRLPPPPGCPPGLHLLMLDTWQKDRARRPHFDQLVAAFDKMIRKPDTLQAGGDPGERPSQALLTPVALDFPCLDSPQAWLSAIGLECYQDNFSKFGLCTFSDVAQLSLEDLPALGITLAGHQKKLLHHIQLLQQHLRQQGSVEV
T10 sequence (Q9Y463 whole entry): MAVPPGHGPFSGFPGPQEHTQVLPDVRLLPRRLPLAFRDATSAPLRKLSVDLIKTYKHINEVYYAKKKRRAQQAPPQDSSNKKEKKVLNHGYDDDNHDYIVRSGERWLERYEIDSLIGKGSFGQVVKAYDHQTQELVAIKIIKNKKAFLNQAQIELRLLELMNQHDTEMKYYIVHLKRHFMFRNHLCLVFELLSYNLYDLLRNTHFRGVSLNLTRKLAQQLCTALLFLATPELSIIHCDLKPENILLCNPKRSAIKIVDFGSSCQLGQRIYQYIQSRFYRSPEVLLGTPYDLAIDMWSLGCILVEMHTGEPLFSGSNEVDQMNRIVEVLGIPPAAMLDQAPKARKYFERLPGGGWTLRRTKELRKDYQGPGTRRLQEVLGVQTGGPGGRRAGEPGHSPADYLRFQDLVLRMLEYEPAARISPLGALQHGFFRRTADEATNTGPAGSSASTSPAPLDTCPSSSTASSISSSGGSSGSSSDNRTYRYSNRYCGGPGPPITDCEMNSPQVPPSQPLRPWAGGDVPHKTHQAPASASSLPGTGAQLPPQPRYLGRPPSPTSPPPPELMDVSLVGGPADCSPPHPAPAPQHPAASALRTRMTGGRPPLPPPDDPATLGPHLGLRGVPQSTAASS
T23 sequence (Q16584 whole entry): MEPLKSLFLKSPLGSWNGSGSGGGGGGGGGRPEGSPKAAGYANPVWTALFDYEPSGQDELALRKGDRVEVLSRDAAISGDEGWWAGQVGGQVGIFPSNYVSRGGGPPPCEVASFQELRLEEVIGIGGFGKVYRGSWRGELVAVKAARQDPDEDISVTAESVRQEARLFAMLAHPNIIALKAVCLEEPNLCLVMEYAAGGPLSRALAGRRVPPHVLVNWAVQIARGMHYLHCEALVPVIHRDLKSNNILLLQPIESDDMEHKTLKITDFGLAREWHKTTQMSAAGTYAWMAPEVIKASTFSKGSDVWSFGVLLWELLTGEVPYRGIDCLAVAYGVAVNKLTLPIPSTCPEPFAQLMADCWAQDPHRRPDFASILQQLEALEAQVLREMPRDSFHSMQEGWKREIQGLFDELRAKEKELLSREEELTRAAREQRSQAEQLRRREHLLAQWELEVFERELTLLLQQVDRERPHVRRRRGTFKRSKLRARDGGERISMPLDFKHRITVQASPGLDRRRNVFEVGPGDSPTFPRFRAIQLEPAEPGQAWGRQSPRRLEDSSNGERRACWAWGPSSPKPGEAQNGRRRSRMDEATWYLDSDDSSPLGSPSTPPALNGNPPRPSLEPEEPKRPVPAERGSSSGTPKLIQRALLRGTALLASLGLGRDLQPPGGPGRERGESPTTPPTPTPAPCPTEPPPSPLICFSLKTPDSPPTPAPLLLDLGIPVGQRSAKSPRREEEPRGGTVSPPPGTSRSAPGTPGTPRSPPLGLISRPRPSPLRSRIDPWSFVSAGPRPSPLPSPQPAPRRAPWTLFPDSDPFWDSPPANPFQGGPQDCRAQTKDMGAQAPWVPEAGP
T18 sequence (P23458 583-855 limits assumed): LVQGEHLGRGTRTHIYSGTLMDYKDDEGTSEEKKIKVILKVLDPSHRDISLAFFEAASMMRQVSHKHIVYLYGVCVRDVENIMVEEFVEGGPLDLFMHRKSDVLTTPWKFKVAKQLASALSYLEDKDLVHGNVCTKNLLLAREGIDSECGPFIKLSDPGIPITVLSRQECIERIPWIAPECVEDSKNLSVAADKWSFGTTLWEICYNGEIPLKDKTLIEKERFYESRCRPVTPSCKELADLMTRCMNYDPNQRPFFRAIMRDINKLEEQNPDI
T27 sequence (Q9UBF8 whole entry): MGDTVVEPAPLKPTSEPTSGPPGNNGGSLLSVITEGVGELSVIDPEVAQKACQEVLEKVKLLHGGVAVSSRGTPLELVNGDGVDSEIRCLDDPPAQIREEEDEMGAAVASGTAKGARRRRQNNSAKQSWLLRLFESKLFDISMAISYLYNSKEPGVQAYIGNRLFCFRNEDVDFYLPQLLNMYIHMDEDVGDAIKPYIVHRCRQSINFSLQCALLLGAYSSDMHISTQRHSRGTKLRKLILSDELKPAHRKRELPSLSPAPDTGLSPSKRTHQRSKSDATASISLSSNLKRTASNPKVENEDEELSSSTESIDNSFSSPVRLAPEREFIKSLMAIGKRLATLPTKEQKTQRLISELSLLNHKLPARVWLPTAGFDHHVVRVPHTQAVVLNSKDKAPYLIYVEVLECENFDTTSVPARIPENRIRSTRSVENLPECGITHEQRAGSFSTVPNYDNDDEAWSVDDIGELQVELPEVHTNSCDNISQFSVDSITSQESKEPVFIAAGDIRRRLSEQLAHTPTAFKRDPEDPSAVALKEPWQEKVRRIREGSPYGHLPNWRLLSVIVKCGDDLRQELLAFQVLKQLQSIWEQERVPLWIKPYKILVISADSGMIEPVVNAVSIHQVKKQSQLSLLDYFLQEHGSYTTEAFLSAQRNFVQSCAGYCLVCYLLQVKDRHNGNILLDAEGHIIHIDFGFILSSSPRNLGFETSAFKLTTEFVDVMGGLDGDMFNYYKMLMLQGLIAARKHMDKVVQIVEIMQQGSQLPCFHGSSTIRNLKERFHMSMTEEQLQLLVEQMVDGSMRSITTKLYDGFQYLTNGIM

CCOP(=O)(CN1CCC(COc2cc3nccc(Oc4ccc(NC(=O)C5(C(=O)Nc6ccc(F)cc6)CC5)cc4F)c3cc2OC)CC1)OCC [Example 10, N1-[4-[[7-[[1-(diethoxyphosphorylmethyl)-4-piperidinyl]methoxyl]-6-methoxyl-4-quinolyl]oxyl]-3-fluorophenyl]-N1′-(4-fluorophenyl)cyclopropane-1,1-dicarboxamide]
% Ctrl@1000 nM [1]: 2.4 % Ctrl | % Ctrl@1000 nM [2]: 84 % Ctrl | % Ctrl@1000 nM (ACVRL1): 100 % Ctrl | % Ctrl@1000 nM (ASK2): 100 % Ctrl | % Ctrl@1000 nM (CDK9): 100 % Ctrl | % Ctrl@1000 nM (CDKL5): 100 % Ctrl | % Ctrl@1000 nM (CSNK1A1L): 100 % Ctrl | % Ctrl@1000 nM (DLK): 52 % Ctrl | % Ctrl@1000 nM (DRAK1): 100 % Ctrl | % Ctrl@1000 nM (DYRK1B): 86 % Ctrl | % Ctrl@1000 nM (EPHB1): 4.6 % Ctrl | % Ctrl@1000 nM (EPHB4): 12 % Ctrl | % Ctrl@1000 nM (EPHB6): 0.9 % Ctrl | % Ctrl@1000 nM (FAK): 51 % Ctrl | % Ctrl@1000 nM (FGFR4): 100 % Ctrl | % Ctrl@1000 nM (FLT3(K663Q)): 0.55 % Ctrl | % Ctrl@1000 nM [3]: 93 % Ctrl | % Ctrl@1000 nM [4]: 100 % Ctrl | % Ctrl@1000 nM (LIMK1): 92 % Ctrl | % Ctrl@1000 nM (LRRK2(G2019S)): 100 % Ctrl | % Ctrl@1000 nM (MEK4): 100 % Ctrl | % Ctrl@1000 nM (MKK7): 100 % Ctrl | % Ctrl@1000 nM (MLK3): 63 % Ctrl | % Ctrl@1000 nM (MST1): 100 % Ctrl | % Ctrl@1000 nM (NEK5): 97 % Ctrl | % Ctrl@1000 nM (PAK6): 87 % Ctrl | % Ctrl@1000 nM (PIK4CB): 100 % Ctrl | % Ctrl@1000 nM (PIP5K2B): 100 % Ctrl | % Ctrl@1000 nM (PIP5K2C): 38 % Ctrl | % Ctrl@1000 nM (PRKCD): 100 % Ctrl | % Ctrl@1000 nM (ROCK2): 100 % Ctrl | % Ctrl@1000 nM [5]: 100 % Ctrl | % Ctrl@1000 nM (TAOK3): 100 % Ctrl | % Ctrl@1000 nM [6]: 92 % Ctrl
